Experimental data published in US8252524B2, “Method of screening pharmaceutical compositions that promote nuclear transfer of Cdc42 protein” (Kowa Company, Ltd., priority 2004, dated 2012).

What was measured:
[1] = test system: Cdc42 protein; assay: Nuclear transfer of GFP/Cdc42 fusion protein in transformed HUVEC observed by fluorescence microscopy; format: cell-based; conditions: HUVEC expressing GFP/Cdc42 fusion protein; 1 μM final concentration; 15 hours culture; nuclei confirmed by Hoechst staining
Protocol: The present inventors measured the behavior of Cdc42 protein in HUVEC with an HMG-CoA reductase inhibitor, particularly pitavastatin. For this measurement, a gene encoding a Cdc42/fluorescence protein GFP fusion protein was introduced into HUVEC to prepare a transformed cell expressing a GFP/Cdc42 fusion protein. This transformed cell was cultured, and the state of Cdc42 distributed in the cell in the presence or absence of pitavastatin was examined by observing the fluorescence of GFP. A gene encoding the whole area of a Cdc42 translation region was introduced into a predetermined position of a commercial plasmid pEGFP-C1 for preparation of a fusion protein consisting of GFP and a desired protein, to construct a plasmid comprising the GFP-Cdc42 gene. After […] were put to a 6-well plate and then cultured overnight in EGM-2 medium. Using Fugene 6, the plasmid construct DNA prepared above was added in an amount of 0.8 μg/well to the cells. The cells were further cultured for 21 hours in EGM-2 medium, and then the fluorescence of GFP was observed under a fluorescence microscope. […] And then the cells were subjected to stationary culture for 15 hours, fixed onto a prepared slide and observed under a fluorescence microscope. […]

[2] = test system: vascular endothelial cells; conditions: cited from earlier work

## O=C(O)C[C@H](O)C[C@H](O)/C=C/c1c(C2CC2)nc2ccccc2c1-c1ccc(F)cc1 [pitavastatin, (3R,5S,6E)-7-[2-cylopropyl-4-(4-fluorophenyl)-3-quinolyl]-3,5-dihydroxy-6-heptenoic acid]
[1]
  Distribution of GFP-Cdc42 in the cell (transfer into the nucleus): GFP-Cdc42 is transferred to a nucleus
[2]
  Expression of NO synthase and thrombomodulin: promotes expression of NO synthase
  Expression of PTX3: suppresses expression of PTX3
  Expression of inflammatory cytokine IL-8 or MCP-1, endothelin and PAI-1: suppresses expression of inflammatory cytokine IL-8 or MCP-1, expression of endothelin and expression of PAI-1
